Experimental data taken from paper PMC5516028, “Molecular tools for GABAA receptors: High affinity ligands for β1-containing subtypes” (Scientific Reports, 2017).

What was measured:
Type in all cases: cell-based
[1] = biological target: T1, α5β3 GABAA receptors (Rattus norvegicus, UniProt P19969+P63079); experiment: Two electrode voltage clamp in Xenopus laevis oocytes, α5β3
T1 construct: expressed in transfected cells; host or cells: Xenopus laevis oocytes, mRNA injected
Text: (§1) cDNA’s of rat GABAA receptor subunits α1, α4, β1, β2, β3 and γ2S were cloned as described. cDNAs of the rat subunits α2, α3 and α5 were gifts from P. Malherbe, that of α6 and γ1 were gifts of P. Seeburg and that of δ was a gift of C. Czajkowski. The mutants were constructed using the Q5 Site-Directed Mutagenesis Kit (New England Biolabs) following manufacturer’s instruction. We used the wild-type rat β3-pCI vector as template and the primers […] and […] resulting in a substitution of amino acid N41 (AAC) to R (AGG). We used the wild-type rat β1-pCI vector as template and the primers […] and […] resulting in a substitution of amino acid R41 (CGG) to N (AAC). The mutated subunits were confirmed by sequencing.
(§2) In vitro transcription of mRNA was based on the cDNA expression vectors encoding for rat GABAA receptor subunits α1–6, β1-3, γ1,2, δ and the two β mutants (β1R41N and β3N41R)[40]. After linearizing the cDNA vectors with appropriate restriction endonucleases, the cDNA was purified and concentrated with the DNA Clean and Contentrator ^TM Kit (Zymoresearch, Catalog No. D4005). Capped transcripts of the purified cDNA were produced using the mMESSAGE mMACHINE® T7 transcription kit (Ambion, TX, USA) and polyadenylated using the Ambion PolyA tailing kit (Ambion). After transcription and polyadenylation the RNA was purified with the MEGAclear ^TM Kit (Ambion, Catalog No. AM1908). The final RNA concentration was measured on NanoDrop® ND-1000 and finally diluted and stored in diethylpyrocarbonate-treated water at −80 °C. For the microinjection, the RNA of αβ receptor combinations was mixed at 1:1 ratio (which leads to αβ receptors that consist of predominantly 3 beta and 2 alpha subunits[27]), for αkβlγm (k = 1–3, l = 1, 3, m = 1, 2) receptors at 1:1:5 ratio, for αkβ3γ2 (k = 4–6) and αkβlδ (k = 1, 4 and 6, l = 1, 3) receptor combinations at 3:1:5 ratio.
(§3) Mature female Xenopus laevis (Nasco, WI) were anesthetized in a bath of ice-cold 0.17% Tricain (Ethyl-m-aminobenzoate, Sigma, MO) before decapitation in full accordance with all rules of the Austrian animal protection law (see http://www.ris.bka.gv.at/Dokumente/BgblAuth/BGBLA_2012_I_114/BGBLA_2012_I_114.pdf) and the Austrian animal experiment by-laws (see https://www.ris.bka.gv.at/Dokumente/BgblAuth/BGBLA_2012_II_522/BGBLA_2012_II_522.pdf) which implement the European Directive 2010/63/EU (see http://eur-lex.europa.eu/LexUriServ/LexUriServ.do?uri=OJ:L:2010:276:0033:0079:en:PDF) into the Austrian law (all information accessed on July 27, 2016). The frog’s ovaries were transferred to ND96 medium (96 mM NaCl, 2 mM KCl, 1 mM MgCl2, 5 mM HEPES; pH 7.5). Stage 5–6 oocytes with the follicle cell layer around them were roughly dissected with forceps into packages of 10–15 cells and washed in Ca^2+-free ND96 medium. Cells were then digested with collagenase (type IA, Sigma, NO, 1 mg/mL ND96) at 18 °C shaking at 30 rpm for 30–60 minutes and gently defolliculated with the aid of a glass pipette with appropriate tip diameter and a platinum loop. Defolliculated cells were stored at 18 °C for at least 6 hours in ND96 solution containing penicillin G (10000 IU/100 mL) and streptomycin (10 mg/100 mL) in order to preselect and exclude damaged cells from further treatment. Healthy defolliculated oocytes were injected with an aqueous solution of mRNA. A total of 4.5 ng of mRNA per oocyte was injected with a Nanoject II (Drummond). After injection of mRNA, oocytes were incubated at 18 °C (ND96 + antibiotic) for 2–3 days for αβ receptors and for 3–4 days for αβγ or αβδ receptors before recording. When cells were measured at later time points, oocytes were stored at +4 °C instead of 18 °C.
(§4) For electrophysiological recordings, oocytes were placed on a nylon-grid in a bath of Ca^2+-containing NDE solution medium [96 mM NaCl, 5 mM HEPES-NaOH (pH 7.5), 2 mM KCl, 1 mM MgCl2, 1.8 mM CaCl2].

[2] = biological target: T2, α1β3γ2 GABAA receptors (Rattus norvegicus, UniProt P62813+P63079); experiment: Two electrode voltage clamp in Xenopus laevis oocytes, α1β3γ2
T2 construct: expressed in transfected cells; host or cells: Xenopus laevis oocytes, mRNA injected
T2 sequence (P62813 28-455): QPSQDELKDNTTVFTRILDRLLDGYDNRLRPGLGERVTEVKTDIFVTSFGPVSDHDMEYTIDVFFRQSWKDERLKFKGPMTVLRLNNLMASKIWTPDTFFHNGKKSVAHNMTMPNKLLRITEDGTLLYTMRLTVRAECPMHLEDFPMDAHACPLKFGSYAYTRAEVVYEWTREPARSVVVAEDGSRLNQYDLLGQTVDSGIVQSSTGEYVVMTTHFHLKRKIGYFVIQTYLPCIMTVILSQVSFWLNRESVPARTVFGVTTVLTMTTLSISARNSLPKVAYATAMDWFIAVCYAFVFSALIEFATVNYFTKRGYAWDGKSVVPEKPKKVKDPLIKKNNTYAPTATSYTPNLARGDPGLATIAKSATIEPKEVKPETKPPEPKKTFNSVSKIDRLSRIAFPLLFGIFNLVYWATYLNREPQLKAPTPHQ
T2 sequence (P63079 26-473): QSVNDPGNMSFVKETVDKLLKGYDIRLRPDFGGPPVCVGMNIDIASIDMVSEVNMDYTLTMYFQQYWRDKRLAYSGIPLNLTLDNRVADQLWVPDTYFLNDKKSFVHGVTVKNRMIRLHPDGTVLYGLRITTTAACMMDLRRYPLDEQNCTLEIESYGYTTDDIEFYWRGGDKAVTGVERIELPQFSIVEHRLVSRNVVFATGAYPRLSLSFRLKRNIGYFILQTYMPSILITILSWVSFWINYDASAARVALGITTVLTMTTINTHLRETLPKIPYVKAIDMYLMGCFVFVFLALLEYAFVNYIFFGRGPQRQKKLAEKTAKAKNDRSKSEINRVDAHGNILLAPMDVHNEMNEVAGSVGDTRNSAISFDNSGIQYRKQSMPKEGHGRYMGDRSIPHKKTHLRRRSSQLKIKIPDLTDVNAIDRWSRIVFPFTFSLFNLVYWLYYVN
T2 sequence (P18508 39-466 partner): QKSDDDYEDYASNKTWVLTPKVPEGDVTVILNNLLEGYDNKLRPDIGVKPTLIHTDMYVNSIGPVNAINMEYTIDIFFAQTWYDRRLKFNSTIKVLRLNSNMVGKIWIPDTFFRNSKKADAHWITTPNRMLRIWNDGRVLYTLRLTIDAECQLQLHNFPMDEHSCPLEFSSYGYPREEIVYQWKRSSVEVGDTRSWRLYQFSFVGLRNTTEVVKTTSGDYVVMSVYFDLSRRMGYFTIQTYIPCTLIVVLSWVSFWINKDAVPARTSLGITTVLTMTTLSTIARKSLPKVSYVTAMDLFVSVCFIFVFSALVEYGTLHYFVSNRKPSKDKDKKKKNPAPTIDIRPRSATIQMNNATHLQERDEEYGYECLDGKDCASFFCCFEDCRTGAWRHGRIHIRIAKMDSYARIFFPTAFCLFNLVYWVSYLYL
Text: as §1, §2, §3, §4

[3] = biological target: T3, α3β3γ2 GABAA receptors (Rattus norvegicus, UniProt P20236+P63079); experiment: Two electrode voltage clamp in Xenopus laevis oocytes, α3β3γ2
T3 construct: expressed in transfected cells; host or cells: Xenopus laevis oocytes, mRNA injected
T3 sequence (P20236 29-493): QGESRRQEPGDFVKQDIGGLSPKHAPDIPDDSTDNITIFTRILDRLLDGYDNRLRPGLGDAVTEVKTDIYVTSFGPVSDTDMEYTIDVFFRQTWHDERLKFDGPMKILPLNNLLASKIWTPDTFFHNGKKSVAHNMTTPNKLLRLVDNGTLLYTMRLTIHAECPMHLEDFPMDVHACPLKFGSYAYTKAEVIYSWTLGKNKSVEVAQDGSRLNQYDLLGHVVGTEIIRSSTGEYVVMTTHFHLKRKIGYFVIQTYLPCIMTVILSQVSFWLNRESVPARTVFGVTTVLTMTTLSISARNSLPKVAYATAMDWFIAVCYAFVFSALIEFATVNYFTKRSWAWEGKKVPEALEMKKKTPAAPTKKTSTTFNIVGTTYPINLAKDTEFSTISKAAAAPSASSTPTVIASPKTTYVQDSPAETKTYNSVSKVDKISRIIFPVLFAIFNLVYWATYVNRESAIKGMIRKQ
T3 sequence (P63079 26-473): as the sequence (P63079 26-473) above
T3 sequence (P18508 39-466 partner): as the sequence (P18508 39-466 partner) above
Text: as §1, §2, §3, §4

[4] = biological target: T4, α3β3 GABAA receptors (Rattus norvegicus, UniProt P20236+P63079); experiment: Two electrode voltage clamp in Xenopus laevis oocytes, α3β3
T4 construct: expressed in transfected cells; host or cells: Xenopus laevis oocytes, mRNA injected
T4 sequence (P20236 29-493): as the sequence (P20236 29-493) above
T4 sequence (P63079 26-473): as the sequence (P63079 26-473) above
Text: as §1, §2, §3, §4

[5] = biological target: T5, α6β3γ2 GABAA receptors (Rattus norvegicus, UniProt P30191+P63079); experiment: Two electrode voltage clamp in Xenopus laevis oocytes, α6β3γ2
T5 construct: expressed in transfected cells; host or cells: Xenopus laevis oocytes, mRNA injected
T5 sequence (P30191 20-453): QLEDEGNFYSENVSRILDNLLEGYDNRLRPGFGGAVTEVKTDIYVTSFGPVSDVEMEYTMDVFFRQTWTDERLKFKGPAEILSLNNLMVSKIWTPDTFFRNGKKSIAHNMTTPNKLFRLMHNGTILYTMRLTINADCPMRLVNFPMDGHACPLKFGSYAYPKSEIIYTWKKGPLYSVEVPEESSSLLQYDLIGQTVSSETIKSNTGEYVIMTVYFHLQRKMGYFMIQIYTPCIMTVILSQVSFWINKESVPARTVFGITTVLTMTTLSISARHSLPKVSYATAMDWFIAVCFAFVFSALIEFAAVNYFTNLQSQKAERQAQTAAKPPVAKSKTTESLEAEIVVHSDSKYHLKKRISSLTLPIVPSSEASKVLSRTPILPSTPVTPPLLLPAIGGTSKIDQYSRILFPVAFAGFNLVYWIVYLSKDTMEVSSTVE
T5 sequence (P63079 26-473): as the sequence (P63079 26-473) above
T5 sequence (P18508 39-466 partner): as the sequence (P18508 39-466 partner) above
Text: as §1, §2, §3, §4

[6] = biological target: T6, α2β3 GABAA receptors (Rattus norvegicus, UniProt P23576+P63079); experiment: Two electrode voltage clamp in Xenopus laevis oocytes, α2β3; details: α2β3
T6 construct: expressed in transfected cells; host or cells: Xenopus laevis oocytes, mRNA injected
T6 sequence (P23576 29-451): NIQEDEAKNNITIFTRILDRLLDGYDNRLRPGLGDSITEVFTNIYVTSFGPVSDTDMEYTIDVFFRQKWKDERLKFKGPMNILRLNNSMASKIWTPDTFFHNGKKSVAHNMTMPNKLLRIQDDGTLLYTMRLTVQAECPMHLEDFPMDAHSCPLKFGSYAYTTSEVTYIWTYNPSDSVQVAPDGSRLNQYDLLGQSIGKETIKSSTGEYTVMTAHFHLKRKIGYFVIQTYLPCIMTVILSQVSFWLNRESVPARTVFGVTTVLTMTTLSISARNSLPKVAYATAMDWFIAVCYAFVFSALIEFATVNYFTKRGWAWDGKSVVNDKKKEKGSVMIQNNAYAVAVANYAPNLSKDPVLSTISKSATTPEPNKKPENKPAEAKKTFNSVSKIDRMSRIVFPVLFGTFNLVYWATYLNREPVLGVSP
T6 sequence (P63079 26-473): as the sequence (P63079 26-473) above
Text: as §1, §2, §3, §4

[7] = biological target: T7, α5β3γ2 GABAA receptors (Rattus norvegicus, UniProt P19969+P63079); experiment: Two electrode voltage clamp in Xenopus laevis oocytes, α5β3γ2
T7 construct: expressed in transfected cells; host or cells: Xenopus laevis oocytes, mRNA injected
T7 sequence (P19969 32-464 limits assumed): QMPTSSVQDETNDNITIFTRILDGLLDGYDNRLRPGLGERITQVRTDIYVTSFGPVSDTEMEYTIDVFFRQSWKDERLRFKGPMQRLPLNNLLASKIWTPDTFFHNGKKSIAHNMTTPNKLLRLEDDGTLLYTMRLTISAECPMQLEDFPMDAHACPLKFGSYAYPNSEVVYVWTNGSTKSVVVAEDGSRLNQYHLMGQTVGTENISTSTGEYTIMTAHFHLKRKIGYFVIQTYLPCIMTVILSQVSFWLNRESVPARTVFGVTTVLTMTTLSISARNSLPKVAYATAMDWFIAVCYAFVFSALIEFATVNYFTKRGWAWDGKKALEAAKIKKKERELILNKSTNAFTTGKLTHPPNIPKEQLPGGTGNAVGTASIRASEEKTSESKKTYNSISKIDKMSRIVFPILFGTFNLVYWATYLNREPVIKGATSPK
T7 sequence (P63079 26-473): as the sequence (P63079 26-473) above
T7 sequence (P18508 39-466 partner): as the sequence (P18508 39-466 partner) above
Text: as §1, §2, §3, §4

[8] = read-out: efficacy, % of control current (GABA EC3-5 = 100%), 1 nM
[9] = read-out: efficacy, % of control current (GABA EC3-5 = 100%), 10 nM
[10] = read-out: efficacy, % of control current (GABA EC3-5 = 100%), 100 nM
[11] = read-out: efficacy, % of control current (GABA EC3-5 = 100%), 300 nM
[12] = read-out: efficacy, % of control current (GABA EC3-5 = 100%), 1 µM
[13] = read-out: efficacy, % of control current (GABA EC3-5 = 100%), 10 µM

T1 sequence (P19969 32-464 limits assumed): as the sequence (P19969 32-464 limits assumed) above
T1 sequence (P63079 26-473): as the sequence (P63079 26-473) above

Cc1ccc(-n2nc3c4cc(Cl)ccc4[nH]cc-3c2=O)cc1 [Compound 2, 8-Chloro-2-(4-methylphenyl)-2H-pyrazolo[4,3-c]quinolin-3(5H)-one] gave an EC50 [1] of 6.1 µM, an activity at 0.001 µM ([1]; read-out: efficacy, % of control current (GABA EC3-5 = 100%), α5β3, 1 nM) of 97.3 ± 1.2% and an activity at 0.1 µM ([1]; read-out: efficacy, % of control current (GABA EC3-5 = 100%), α5β3, 100 nM) of 110 ± 3.6%. For the same molecule, the activity at 0.3 µM ([1]; read-out: efficacy, % of control current (GABA EC3-5 = 100%), α5β3, 300 nM) was 108 ± 6.3%, the activity at 1 µM ([1]; read-out: efficacy, % of control current (GABA EC3-5 = 100%), α5β3, 1 µM) was 132 ± 3.8% and the activity at 3 µM ([1]; read-out: efficacy, % of control current (GABA EC3-5 = 100%), α5β3, 3 µM) was 190 ± 22.9%. For the same molecule, the activity at 30 µM ([1]; read-out: efficacy, % of control current (GABA EC3-5 = 100%), α5β3, 30 µM) was 232 ± 21.5%, the EC50 ([2]; co-applied with GABA EC3-5, read-out: EC50) was 4.4 µM and the activity at 0.001 µM [2, 8] was 100%. For the same molecule, the activity at 0.01 µM [2, 9] was 108 ± 4%, the activity at 0.1 µM [2, 10] was 108 ± 4% and the activity at 0.3 µM [2, 11] was 128 ± 5.6%. For the same molecule, the activity at 1 µM [2, 12] was 156 ± 19%, the activity at 10 µM [2, 13] was 423 ± 106% and the activity at 30 µM ([2]; read-out: efficacy, % of control current (GABA EC3-5 = 100%), 30 µM) was 534 ± 136%. The Emax ([2]; read-out: maximum efficacy / modulatory effects up to) was ~600%, the EC50 ([3]; co-applied with GABA EC3-5) was 7.2 µM and the activity at 0.001 µM [3, 8] was 100%. The activity at 0.1 µM [3, 10] was 109 ± 1%, the activity at 10 µM [3, 13] was 305 ± 71% and the EC50 [4] was 2.1 µM. It also gave an activity at 0.001 µM ([4]; read-out: efficacy, % of control current (GABA EC3-5 = 100%), α3β3, 1 nM) of 101.2 ± 0.8%, an activity at 0.01 µM ([4]; read-out: efficacy, % of control current (GABA EC3-5 = 100%), α3β3, 10 nM) of 102 ± 1.2% and an activity at 0.1 µM ([4]; read-out: efficacy, % of control current (GABA EC3-5 = 100%), α3β3, 100 nM) of 106 ± 1.3%. For the same molecule, the activity at 3 µM ([4]; read-out: efficacy, % of control current (GABA EC3-5 = 100%), α3β3, 3 µM) was 226 ± 10.7%, the activity at 10 µM ([4]; read-out: efficacy, % of control current (GABA EC3-5 = 100%), α3β3, 10 µM) was 285 ± 7% and the activity at 30 µM ([4]; read-out: efficacy, % of control current (GABA EC3-5 = 100%), α3β3, 30 µM) was 288 ± 8.7%. The EC50 ([5]; co-applied with GABA EC3-5) was > 5 µM, the activity at 0.001 µM [5, 8] was 106 ± 6.6% and the activity at 0.01 µM [5, 9] was 114 ± 8.8%. The activity at 0.1 µM [5, 10] was 152 ± 12%, the activity at 1 µM [5, 12] was 297 ± 16.2% and the activity at 10 µM [5, 13] was > 1000%. The activity at 0.001 µM [6, 8] was 100%, the activity at 0.01 µM [6, 9] was 100% and the activity at 0.3 µM [6, 11] was 123 ± 4.9%. It also gave an activity at 1 µM [6, 12] of 127 ± 9.8%, an activity at 3 µM ([6]; read-out: efficacy, % of control current (GABA EC3-5 = 100%), 3 µM) of 254 ± 4% and an EC50 ([6]; log of EC50, sign as printed, read-out: LogEC50 (converted)) of 15.8 µM. The EC50 [7] was 6.4 µM, the activity at 0.001 µM ([7]; read-out: efficacy, % of control current (GABA EC3-5 = 100%), α5β3γ2, 1 nM) was 93.3 ± 5.7% and the activity at 0.01 µM ([7]; read-out: efficacy, % of control current (GABA EC3-5 = 100%), α5β3γ2, 10 nM) was 95.1 ± 6.9%. It also gave an activity at 0.1 µM ([7]; read-out: efficacy, % of control current (GABA EC3-5 = 100%), α5β3γ2, 100 nM) of 97.7 ± 11.5%, an activity at 0.3 µM ([7]; read-out: efficacy, % of control current (GABA EC3-5 = 100%), α5β3γ2, 300 nM) of 103 ± 14.9% and an activity at 1 µM ([7]; read-out: efficacy, % of control current (GABA EC3-5 = 100%), α5β3γ2, 1 µM) of 123 ± 16.5%. It also gave an activity at 10 µM ([7]; read-out: efficacy, % of control current (GABA EC3-5 = 100%), α5β3γ2, 10 µM) of 220 ± 31.1%, an activity at 30 µM ([7]; read-out: efficacy, % of control current (GABA EC3-5 = 100%), α5β3γ2, 30 µM) of 266 ± 41% and an Emax ([7]; α5-containing subtype (α5β3γ2), read-out: maximum efficacy) of ~200%.
